Here are results for three molecules from patent US20240041042A1, “1-(PYRIDYL)-5-AZINYLPYRAZOLE DERIVATIVES, AND THEIR USE FOR CONTROL OF UNDESIRED PLANT GROWTH” (Bayer Aktiengesellschaft, priority 2020, published 2024).

The structures appear in SMILES notation. Where two headings read alike, the source gives them in different places.

Common to all, as to assay type: in vivo
Data set [1] relates to Alopecurus myosuroides (ALOMY). As to the kind of experiment: Pre-emergence herbicidal action against ALOMY. The conditions noted are these: 320 g/ha; scored visually after about 3 weeks; 100% = plants have died. In short, it runs like this:
(§1)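 Herbicide applied to soil before seedling emergence, at 600 l/ha spray volume with 0.5% additive and rates up to 320 g/ha. Evaluation: visual percentage effect, about 3 weeks later, greenhouse-grown pots compared with untreated ones.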

A further data set deals with Glycine max (GLXMA). The conditions noted are these: pre-emergence, crop plant compatibility, in comparison to untreated controls. In short, it runs like this:
(§2)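 Scoring: visual, % of untreated control, about 3 weeks after a pre-emergence application to the soil surface. Application used WP or EC formulations diluted in water with 0.5% additive at 600 l/ha; dosage levels are marked by suffixes a, b and c.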

Data set [2] relates to Viola tricolor (VIOTR). As to the kind of experiment: Post-emergence herbicidal action against VIOTR. In short, it runs like this:
(§3)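 Post-emergence greenhouse spray, one-leaf stage, 600 l/ha water plus 0.5% additive; WP or EC formulations; application rates 320 g/ha or lower. Visual % damage vs untreated controls at ~3 weeks.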

The subject of data set [3] is Alopecurus myosuroides (ALOMY). As to the kind of experiment: Post-emergence herbicidal action against ALOMY. The conditions noted are these: 320 g/ha, visual rating about 3 weeks after treatment vs untreated controls (100% = plants have died, 0% = like control plants). In short, it runs like this: as §3
Data set [4] relates to Digitaria sanguinalis (DIGSA). As to the kind of experiment: Post-emergence herbicidal action against DIGSA. Particulars: 320 g/ha, visual rating about 3 weeks after treatment. In short, it runs like this:
as §3

The test system of data set [5] is Polygonum convolvulus (POLCO). As to the kind of experiment: Post-emergence herbicidal action against POLCO. Put shortly:
as §3

In data set [6] the test system is Zea mays (ZEAMX). The conditions noted are these: crop plant compatibility, 80 g/ha, effect vs untreated controls. In short, it runs like this:
(§4)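 Visual rating (% effect vs. untreated plants; 100% = plant death) made about 3 weeks after treatment. Plants had been sprayed at one-leaf stage, 2–3 weeks post-sowing, with aqueous WP/EC preparations containing 0.5% additive, 600 l/ha water volume; a, b, c mark dose levels.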

Data set [7] relates to Oryza sativa (ORYSA). Particulars: crop plant compatibility, effect in comparison to untreated controls. Put shortly: as §4
Data set [8] concerns Polygonum convolvulus (POLCO). As to the kind of experiment: Pre-emergence herbicidal action against POLCO. The conditions noted are these: dosage 320 g/ha. In short, it runs like this:
as §1

The subject of data set [9] is Echinochloa crus-galli (ECHCG). The experiment in a line: Post-emergence herbicidal action against ECHCG. The conditions noted are these: dosage 320 g/ha. Put shortly:
as §3

The test system of the next data set is Setaria viridis (SETVI). As to the kind of experiment: Pre-emergence herbicidal action against SETVI. Particulars: dosage 320 g/ha. In short, it runs like this:
as §1

Data set [10] deals with Viola tricolor (VIOTR). As to the kind of experiment: Pre-emergence herbicidal action against VIOTR. In short, it runs like this: as §1
Data set [11] relates to Digitaria sanguinalis (DIGSA). As to the kind of experiment: Pre-emergence herbicidal action against DIGSA. The conditions noted are these: dosage 320 g/ha. In short, it runs like this: as §1
Data set [12] deals with Matricaria inodora (MATIN). As to the kind of experiment: Pre-emergence herbicidal action against MATIN. Particulars: dosage 320 g/ha. Put shortly: as §1
Data set [13] concerns Zea mays (ZEAMX). The conditions noted are these: pre-emergence, crop plant compatibility, in comparison to untreated controls. In short, it runs like this: as §2
The subject of data set [14] is Oryza sativa (ORYSA). The conditions noted are these: pre-emergence, crop plant compatibility, in comparison to untreated controls. In short, it runs like this:
as §2

Data set [15] deals with Amaranthus retroflexus (AMARE). The experiment in a line: Post-emergence herbicidal action against AMARE. In short, it runs like this:
as §3

The test system of data set [16] is Verconica persica (VERPE). As to the kind of experiment: Post-emergence herbicidal action against VERPE. The conditions noted are these: 320 g/ha, VERPE. In short, it runs like this:
as §3

The test system of data set [17] is Pharbitis purpurea (PHBPU). As to the kind of experiment: Post-emergence herbicidal action against PHBPU. Particulars: dosage 320 g/ha. Put shortly: as §3
Data set [18] has as its system Lolium rigidum (LOLRI). As to the kind of experiment: Pre-emergence herbicidal action against LOLRI. Particulars: dosage 320 g/ha. Put shortly:
as §1

Data set [19] deals with Lolium rigidum (LOLRI). The experiment in a line: Post-emergence herbicidal action against LOLRI. The conditions noted are these: dosage 320 g/ha. In short, it runs like this:
as §3

In data set [20] the test system is Amaranthus retroflexus (AMARE). As to the kind of experiment: Pre-emergence herbicidal action against AMARE. The conditions noted are these: 320 g/ha, visual scoring after about 3 weeks vs untreated controls. Put shortly:
as §1

`CC(C)C(Oc1nn(-c2ccccn2)c(-c2ccc(F)nc2)c1Br)C(=O)O` (centres unmarked) [Example I-347]: in data set [1], the “Pre-emergence action against ALOMY” value was found to be 80%. Besides, in the data set on Glycine max (GLXMA) (80 g/ha), the “Pre-emergence action against GLXMA in %” value is given as 10%. Further, the “Post-emergence action against VIOTR in %” value in the data set on Viola tricolor (VIOTR) [2] (80 g/ha) and with Viola tricolor (VIOTR) [2] (320 g/ha) was 80% throughout. The “Post-emergence action against ALOMY in %” value in data set [3] was determined as 80%. Moreover, the “Post-emergence action against DIGSA in %” value in [4] is reported as 80%. Besides, in [5] (dosage 320 g/ha), the “Post-emergence action against POLCO in %” value was 80%. For the same molecule, the “Post-emergence action against ZEAMX in %” value in the data set with Zea mays (ZEAMX) [6] was determined as 20%. Moreover, the “Post-emergence action against ORYSA in %” value in the data set on Oryza sativa (ORYSA) [7] (80 g/ha) and in the data set with Oryza sativa (ORYSA) [7] (320 g/ha) was 0% each time. For the same molecule, in data set [8], the “Pre-emergence action against POLCO in %” value came out at 80%. Moreover, the “Post-emergence action against ECHCG in %” value in data set [9] amounted to 80%. In the data set with Setaria viridis (SETVI), the “Pre-emergence action against SETVI in %” value is reported as 80%. The “Pre-emergence action against VIOTR in %” value was found to be 100% in the data set with Viola tricolor (VIOTR) [10] (320 g/ha, Viola tricolor) and 90% with Viola tricolor (VIOTR) [10] (dosage 80 g/ha). Also, the “Pre-emergence action against DIGSA in %” value in data set [11] is on record as 90%. Moreover, the “Pre-emergence action against MATIN in %” value in data set [12] is on record as 80%.
With `C[C@@H](Oc1nn(-c2ccnc(Cl)c2)c(-c2ccc(F)nc2)c1Br)C(=O)O` [III-30], the “Pre-emergence action against ZEAMX in %” value is reported as 0% with Zea mays (ZEAMX) [13] (80 g/ha) and 10% with Zea mays (ZEAMX) [13] (320 g/ha). For the same molecule, the entries for the “Pre-emergence action against ORYSA in %” value with Oryza sativa (ORYSA) [14] (80 g/ha) and in the data set with Oryza sativa (ORYSA) [14] (320 g/ha) were 10% and 20%, respectively. The “Pre-emergence action against GLXMA in %” value in the data set on Glycine max (GLXMA) (80 g/ha) and in the data set on Glycine max (GLXMA) (320 g/ha) was 20% each time. The “Post-emergence action against VIOTR in %” value with Viola tricolor (VIOTR) [2] (320 g/ha) was 80%. Further, the “Post-emergence action against ALOMY in %” value in [3] was 80%. Besides, the “Post-emergence action against AMARE in %” value was 80% in [15] (80 g/ha, visual rating about 3 weeks after treatment vs untreated controls (100% = plants have died, 0% = like control plants)) and 90% in data set [15] (320 g/ha, visual rating about 3 weeks after treatment). For the same molecule, the “Post-emergence action against VERPE in %” value in data set [16] came to 80%. Moreover, in data set [5] (dosage 320 g/ha), the “Post-emergence action against POLCO in %” value is on record as 90%. For the same molecule, the “Post-emergence action against ZEAMX in %” value in the data set with Zea mays (ZEAMX) [6] is 20%. Besides, the “Post-emergence action against ORYSA in %” value is listed as 10% in the data set on Oryza sativa (ORYSA) [7] (80 g/ha) and 20% in the data set with Oryza sativa (ORYSA) [7] (320 g/ha).
Regarding `COC(=O)CCOC(=O)[C@@H](C)Oc1nn(-c2ccccn2)c(-c2ccc(Cl)nc2)c1Br` [Example I-244], in data set [1], the “Pre-emergence action against ALOMY” value is on record as 90%. Also, the “Pre-emergence action against ZEAMX in %” value in the data set with Zea mays (ZEAMX) [13] (80 g/ha) stood at 0%. In the data set on Glycine max (GLXMA) (80 g/ha), the “Pre-emergence action against GLXMA in %” value was 0%. The “Post-emergence action against VIOTR in %” value in the data set on Viola tricolor (VIOTR) [2] (80 g/ha) and with Viola tricolor (VIOTR) [2] (320 g/ha) was 80% each time. Moreover, in data set [3], the “Post-emergence action against ALOMY in %” value was found to be 80%. For the same molecule, the “Post-emergence action against DIGSA in %” value in data set [4] amounted to 80%. Moreover, the “Post-emergence action against POLCO in %” value in [5] (dosage 80 g/ha) and in data set [5] (dosage 320 g/ha) was 80% in each case. Further, the “Post-emergence action against PHBPU in %” value in data set [17] was determined as 80%. Further, the “Pre-emergence action against LOLRI in %” value in the data set on Lolium rigidum (LOLRI) [18] worked out at 100%. For the same molecule, the “Post-emergence action against ZEAMX in %” value in the data set on Zea mays (ZEAMX) [6] is given as 20%. For the same molecule, the “Post-emergence action against ORYSA in %” value in the data set on Oryza sativa (ORYSA) [7] (320 g/ha) turned out to be 0%. Further, in data set [8], the “Pre-emergence action against POLCO in %” value amounted to 80%. Also, the “Post-emergence action against LOLRI in %” value in the data set with Lolium rigidum (LOLRI) [19] is reported as 80%. The “Pre-emergence action against VIOTR in %” value in the data set with Viola tricolor (VIOTR) [10] (320 g/ha, Viola tricolor) stood at 90%. Moreover, the “Pre-emergence action against DIGSA in %” value in [11] came to 90%. In data set [20], the “Pre-emergence action against AMARE in %” value turned out to be 90%.
